Reference: US20070276141A1, “Preparation of Pharmaceutical Salts of [1,4] - Bipiperidine” (priority 2003, published 2007)

Experiment: Relative stability of solid forms
Type: physicochemical
Settings: test conditions not given

Cc1ccc(S(=O)(=O)NC(=O)N2CCC(N3CCC(Oc4ccc(Cl)c(Cl)c4)CC3)CC2)cc1 [Hydrate Form A, N-[[4-(3,4-dichlorophenoxy)[1,4′-bipiperidin]-1′-yl]carbonyl]-4-methyl-benzenesulfonamide]
stability compared with other solid forms of the sodium salt: more stable than Hydrate Forms B and D and Solvated Form E
